Like-named read-outs stand apart in the source and are kept apart here.

Test [1] has as its target FGFR2 (Homo sapiens (Human), UniProt P21802). The test is described as follows: FGFR Enzymatic Assay (FRET peptide phosphorylation), FGFR2. The format is biochemical. The conditions noted are these: pre-incubated for 4 hours. How it is done: (§1) The inhibitor potency of the exemplified compounds was measured in an enzyme assay that measures peptide phosphorylation using FRET measurements to detect product formation. Inhibitors were serially diluted in DMSO and a volume of 0.5 μL was transferred to the wells of a 384-well plate.
(§2) The enzymes were purchased from Millipore or Invitrogen.
(§3) GraphPad prism3 was used to analyze the data.

Test [2] has as its target FGFR3 enzyme (Homo sapiens (Human), UniProt P22607). The test is described as follows: FGFR Enzymatic Assay (FRET peptide phosphorylation), FGFR3. The format is biochemical. The conditions noted are these: for FGFR1/FGFR3 IC50 ratio / FGFR4/FGFR3 IC50 ratio: FGFR3 selectivity. How it is done: as §1, §3
Test [3] has as its target FGFR4 (Homo sapiens (Human), UniProt P22455). The test is described as follows: FGFR Enzymatic Assay (FRET peptide phosphorylation), FGFR4. It is filed as biochemical. The conditions noted are these: pre-incubated for 4 hours. Here is the method:
as §1, §2, §3

In test [4] the target is FGFR1 (Homo sapiens (Human), UniProt P11362). The test is described as follows: FGFR Enzymatic Assay (FRET peptide phosphorylation), FGFR1.
[5] abbreviates: pre-incubated for 4 hours, read-out: FGFR3 IC50.
Where [6] appears, read: FGFR1 IC50 (nM), pre-incubated for 4 hours.
Where [7] appears, read: read-out: FGFR1 IC50, pre-incubated for 4 hours.

Chain of FGFR1 (P11362 22-822): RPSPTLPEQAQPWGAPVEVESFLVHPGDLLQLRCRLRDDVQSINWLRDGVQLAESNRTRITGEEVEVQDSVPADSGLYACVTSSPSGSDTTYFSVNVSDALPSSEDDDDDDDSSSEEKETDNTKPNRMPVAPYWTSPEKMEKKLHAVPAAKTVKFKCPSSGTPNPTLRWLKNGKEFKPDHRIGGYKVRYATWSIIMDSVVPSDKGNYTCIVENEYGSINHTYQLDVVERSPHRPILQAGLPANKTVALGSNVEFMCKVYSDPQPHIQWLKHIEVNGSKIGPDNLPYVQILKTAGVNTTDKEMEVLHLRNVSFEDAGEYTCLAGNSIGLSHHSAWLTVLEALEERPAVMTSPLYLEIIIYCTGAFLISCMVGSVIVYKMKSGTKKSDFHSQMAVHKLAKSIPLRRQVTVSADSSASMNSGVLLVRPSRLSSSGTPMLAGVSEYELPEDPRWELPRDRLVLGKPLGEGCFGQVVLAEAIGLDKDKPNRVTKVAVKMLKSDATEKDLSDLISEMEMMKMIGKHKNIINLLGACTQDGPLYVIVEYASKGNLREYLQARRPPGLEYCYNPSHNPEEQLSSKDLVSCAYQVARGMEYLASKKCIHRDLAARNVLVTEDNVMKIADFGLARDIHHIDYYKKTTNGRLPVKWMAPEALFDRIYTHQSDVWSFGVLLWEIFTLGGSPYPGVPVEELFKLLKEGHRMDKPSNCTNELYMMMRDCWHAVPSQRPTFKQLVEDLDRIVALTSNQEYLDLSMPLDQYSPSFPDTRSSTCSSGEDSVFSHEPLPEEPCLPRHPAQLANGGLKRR
Chain of FGFR4 (P22455 22-802): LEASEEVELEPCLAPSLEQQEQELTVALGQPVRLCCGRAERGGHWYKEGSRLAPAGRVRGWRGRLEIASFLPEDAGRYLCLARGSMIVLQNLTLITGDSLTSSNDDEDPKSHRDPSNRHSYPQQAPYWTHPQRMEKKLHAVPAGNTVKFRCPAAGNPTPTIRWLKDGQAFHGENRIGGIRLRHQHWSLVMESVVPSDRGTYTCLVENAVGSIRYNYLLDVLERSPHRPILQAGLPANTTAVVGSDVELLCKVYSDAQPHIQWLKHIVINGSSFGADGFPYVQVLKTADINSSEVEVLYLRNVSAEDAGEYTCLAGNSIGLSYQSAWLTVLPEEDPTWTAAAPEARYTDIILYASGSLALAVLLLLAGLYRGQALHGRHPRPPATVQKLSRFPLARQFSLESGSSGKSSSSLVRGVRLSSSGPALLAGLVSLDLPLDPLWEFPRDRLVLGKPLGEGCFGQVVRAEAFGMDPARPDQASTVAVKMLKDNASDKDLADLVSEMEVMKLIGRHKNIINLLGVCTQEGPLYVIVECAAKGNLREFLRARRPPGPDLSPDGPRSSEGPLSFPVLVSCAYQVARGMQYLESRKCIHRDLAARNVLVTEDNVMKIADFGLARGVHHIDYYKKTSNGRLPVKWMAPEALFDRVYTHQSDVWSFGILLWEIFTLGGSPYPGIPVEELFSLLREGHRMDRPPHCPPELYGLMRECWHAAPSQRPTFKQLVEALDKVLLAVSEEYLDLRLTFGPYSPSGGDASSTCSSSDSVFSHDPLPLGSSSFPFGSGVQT
Chain of FGFR2 (P21802 22-821): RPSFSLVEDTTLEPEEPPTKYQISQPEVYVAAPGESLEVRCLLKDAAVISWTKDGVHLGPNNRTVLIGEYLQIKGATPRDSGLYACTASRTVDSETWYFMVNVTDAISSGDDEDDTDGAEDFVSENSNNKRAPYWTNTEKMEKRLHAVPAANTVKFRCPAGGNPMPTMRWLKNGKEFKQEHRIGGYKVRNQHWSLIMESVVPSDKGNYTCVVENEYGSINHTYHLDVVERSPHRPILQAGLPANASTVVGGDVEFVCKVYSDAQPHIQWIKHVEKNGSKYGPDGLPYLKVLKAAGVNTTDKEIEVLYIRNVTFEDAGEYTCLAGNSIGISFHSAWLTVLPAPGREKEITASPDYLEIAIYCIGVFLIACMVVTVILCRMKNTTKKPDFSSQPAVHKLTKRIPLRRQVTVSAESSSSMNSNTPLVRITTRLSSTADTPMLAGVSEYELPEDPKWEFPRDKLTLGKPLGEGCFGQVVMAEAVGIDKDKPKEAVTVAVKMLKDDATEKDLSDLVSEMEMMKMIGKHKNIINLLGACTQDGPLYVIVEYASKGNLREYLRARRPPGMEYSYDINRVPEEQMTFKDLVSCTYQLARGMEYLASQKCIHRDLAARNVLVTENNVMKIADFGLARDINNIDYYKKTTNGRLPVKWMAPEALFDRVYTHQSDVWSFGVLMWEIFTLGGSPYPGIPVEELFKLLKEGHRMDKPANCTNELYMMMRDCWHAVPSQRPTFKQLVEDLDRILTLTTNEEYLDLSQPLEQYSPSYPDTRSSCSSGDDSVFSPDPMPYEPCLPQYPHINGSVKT
Chain of FGFR3 enzyme (P22607 23-806): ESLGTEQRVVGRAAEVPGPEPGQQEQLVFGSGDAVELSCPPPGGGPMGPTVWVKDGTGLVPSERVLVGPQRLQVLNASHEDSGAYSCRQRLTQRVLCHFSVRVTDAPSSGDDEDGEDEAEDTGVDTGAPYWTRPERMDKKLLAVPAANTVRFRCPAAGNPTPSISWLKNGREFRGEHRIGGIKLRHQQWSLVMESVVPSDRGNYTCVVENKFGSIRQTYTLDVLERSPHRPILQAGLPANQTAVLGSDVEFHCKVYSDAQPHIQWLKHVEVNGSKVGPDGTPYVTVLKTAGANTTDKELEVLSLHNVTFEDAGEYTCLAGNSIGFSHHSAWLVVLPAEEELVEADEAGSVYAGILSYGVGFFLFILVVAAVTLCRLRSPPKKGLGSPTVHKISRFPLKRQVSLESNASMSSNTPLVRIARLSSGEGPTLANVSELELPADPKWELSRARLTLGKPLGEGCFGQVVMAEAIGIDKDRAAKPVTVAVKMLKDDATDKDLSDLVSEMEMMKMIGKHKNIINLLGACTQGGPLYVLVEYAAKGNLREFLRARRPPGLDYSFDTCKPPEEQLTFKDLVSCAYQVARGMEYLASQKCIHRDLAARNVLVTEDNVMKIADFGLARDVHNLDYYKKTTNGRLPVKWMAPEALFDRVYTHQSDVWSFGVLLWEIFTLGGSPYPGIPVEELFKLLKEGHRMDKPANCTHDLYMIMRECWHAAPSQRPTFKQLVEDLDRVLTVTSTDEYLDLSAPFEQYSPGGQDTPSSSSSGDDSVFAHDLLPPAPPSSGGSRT

Take `COc1cc(OC)c(F)c(N2Cc3cnc(-c4cn(C)nc4C)cc3N(Cc3ccncn3)C2=O)c1F` [Example 65, 3-(2,6-difluoro-3,5-dimethoxyphenyl)-7-(1,3-dimethyl-1H-pyrazol-4-yl)-1-(pyrimidin-4-ylmethyl)-3,4-dihydropyrido[4,3-d]pyrimidin-2(1H)-one]: the IC50 (in general, the concentration at which inhibition is half-maximal) is under 0.01 µM in test [1], under 0.01 µM in test [2] (setting [5]), 0.03 to 0.2 µM in test [3] and 30 to 200 nM in test [4] (setting [6]). Besides, the “FGFR1/FGFR3 IC50 ratio” value in test [2] (pre-incubated for 4 hours) is reported as over 5. Besides, in test [2] (pre-incubated for 4 hours), the “FGFR4/FGFR3 IC50 ratio” value is reported as over 10.

Take `COc1cc(OC)c(F)c(N2Cc3cnc(-c4cn(C)nc4C)cc3N(c3ccc(F)c(C#N)c3)C2=O)c1F` [Example 66, 5-(3-(2,6-difluoro-3,5-dimethoxyphenyl)-7-(1,3-dimethyl-1H-pyrazol-4-yl)-2-oxo-3,4-dihydropyrido[4,3-d]pyrimidin-1(2H)-yl)-2-fluorobenzonitrile]: the IC50 in test [1] is 0.03 to 0.2 µM; in test [2] (setting [5]) it was 0.01 to 0.03 µM; in test [3] it was 0.03 to 0.2 µM; in test [4] (setting [7]), over 200 nM. In addition, in test [2] (pre-incubated for 4 hours), the “FGFR1/FGFR3 IC50 ratio” value is recorded as over 5. The “FGFR4/FGFR3 IC50 ratio” value in test [2] (pre-incubated for 4 hours) is reported as over 5.

As for `COc1cc(OC)c(F)c(N2Cc3cnc(-c4cn(C)nc4C)cc3N(c3cnccn3)C2=O)c1F` [Example 70, 3-(2,6-difluoro-3,5-dimethoxyphenyl)-7-(1,3-dimethyl-1H-pyrazol-4-yl)-1-(pyrazin-2-yl)-3,4-dihydropyrido[4,3-d]pyrimidin-2(1H)-one], the IC50 in test [1] fell in the range of 0.01 to 0.03 µM; in test [2] (setting [5]) it was 0.01 to 0.03 µM; in test [3], 0.03 to 0.2 µM; in test [4] (setting [6]), 30 to 200 nM. The “FGFR1/FGFR3 IC50 ratio” value in test [2] (pre-incubated for 4 hours) was over 5. The “FGFR4/FGFR3 IC50 ratio” value in test [2] (pre-incubated for 4 hours) is listed as over 5.

`COc1cc(OC)c(F)c(N2Cc3cnc(-c4cn(C)nc4C)cc3N(C3CCN(S(C)(=O)=O)CC3)C2=O)c1F` [Example 71, 3-(2,6-difluoro-3,5-dimethoxyphenyl)-7-(1,3-dimethyl-1H-pyrazol-4-yl)-1-(1-(methylsulfonyl)piperidin-4-yl)-3,4-dihydropyrido[4,3-d]pyrimidin-2(1H)-one]: the IC50 was 0.03 to 0.2 µM in test [1], 0.01 to 0.03 µM in test [2], 0.03 to 0.2 µM in test [3] and 30 to 200 nM in test [4]. The “FGFR1/FGFR3 IC50 ratio” value in test [2] (pre-incubated for 4 hours) was over 5. The “FGFR4/FGFR3 IC50 ratio” value in test [2] (pre-incubated for 4 hours) is reported as over 3.

Consider `COc1cc(OC)c(F)c(N2Cc3cnc(-c4cn(C)nc4C)cc3N(Cc3cnn(C)c3)C2=O)c1F` [Example 72, 3-(2,6-difluoro-3,5-dimethoxyphenyl)-7-(1,3-dimethyl-1H-pyrazol-4-yl)-1-((1-methyl-1H-pyrazol-4-yl)methyl)-3,4-dihydropyrido[4,3-d]pyrimidin-2(1H)-one], for which the IC50 in test [1] was under 0.01 µM; in test [2] (setting [5]) it was under 0.01 µM; in test [3], under 0.01 µM; in test [4] (setting [7]) it was under 10 nM. Besides, the “FGFR1/FGFR3 IC50 ratio” value in test [2] (pre-incubated for 4 hours) is over 5. In test [2] (pre-incubated for 4 hours), the “FGFR4/FGFR3 IC50 ratio” value is over 10.

Take `COc1cc(OC)c(F)c(N2Cc3cnc(-c4cn(C)nc4C)cc3N(Cc3ccc(F)c(F)c3)C2=O)c1F` [Example 73, 3-(2,6-difluoro-3,5-dimethoxyphenyl)-1-(3,4-difluorobenzyl)-7-(1,3-dimethyl-1H-pyrazol-4-yl)-3,4-dihydropyrido[4,3-d]pyrimidin-2(1H)-one]: the IC50 in test [1] was in the range of 0.01 to 0.03 µM; in test [2] (setting [5]), 0.01 to 0.03 µM; in test [3] it was 0.03 to 0.2 µM; in test [4] (setting [6]) it was 30 to 200 nM. For the same compound, in test [2] (pre-incubated for 4 hours), the “FGFR1/FGFR3 IC50 ratio” value was over 5. Also, the “FGFR4/FGFR3 IC50 ratio” value in test [2] (pre-incubated for 4 hours) is listed as over 10.

With `COc1cc(OC)c(F)c(N2Cc3cnc(-c4cn(C)nc4C)cc3N(c3ccc4nc(C)oc4c3)C2=O)c1F` [Example 75, 3-(2,6-difluoro-3,5-dimethoxyphenyl)-7-(1,3-dimethyl-1H-pyrazol-4-yl)-1-(2-methylbenzo[d]oxazol-6-yl)-3,4-dihydropyrido[4,3-d]pyrimidin-2(1H)-one], the IC50 in test [1] was in the range of 0.03 to 0.2 µM; in test [2] (setting [5]), 0.01 to 0.03 µM; in test [3] it was 0.03 to 0.2 µM; in test [4] (setting [6]), 30 to 200 nM. In addition, in test [2] (pre-incubated for 4 hours), the “FGFR1/FGFR3 IC50 ratio” value is on record as over 5. In addition, the “FGFR4/FGFR3 IC50 ratio” value in test [2] (pre-incubated for 4 hours) is over 3.

These data come from patent US9708318B2, “Bicyclic heterocycles as FGFR4 inhibitors” (Incyte Corporation, priority 2015, dated 2017).
